pIC50: −log10 of the molar value.
Experiments:
mouse ENT-1 transporter = molecular target: T1, mouse ENT-1 transporter (Mus musculus, UniProt Q9JIM1); test: Measure of adenosine transport activity (ENT1 adenosine uptake inhibition); format: cell-based; conditions: stable cells expressing mouse ENT-1, [2,8-3H]-adenosine 6 nM, 20 min
T1 construct: expressed in transfected cells
T1 sequence (Q9JIM1 1-460): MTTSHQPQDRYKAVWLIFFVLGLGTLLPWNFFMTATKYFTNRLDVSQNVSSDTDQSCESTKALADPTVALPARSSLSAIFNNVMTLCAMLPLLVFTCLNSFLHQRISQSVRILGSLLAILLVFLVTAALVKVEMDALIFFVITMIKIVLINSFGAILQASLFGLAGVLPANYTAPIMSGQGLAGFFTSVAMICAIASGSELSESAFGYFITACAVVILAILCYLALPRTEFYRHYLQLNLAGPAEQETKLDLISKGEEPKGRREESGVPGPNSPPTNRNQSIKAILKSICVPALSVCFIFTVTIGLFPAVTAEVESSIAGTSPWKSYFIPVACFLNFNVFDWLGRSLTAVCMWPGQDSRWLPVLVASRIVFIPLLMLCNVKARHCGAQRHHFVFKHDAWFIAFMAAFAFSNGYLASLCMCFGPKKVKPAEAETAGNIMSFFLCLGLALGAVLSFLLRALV
How it was run: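 Stable mouse ENT-1 cells, 60,000/well, washed into pH 7.4 Hepes-Tris uptake buffer and incubated at RT with compound (1% DMSO final) for 20 min with shaking. Non-specific uptake defined with 10 μM NBTI; cell-associated radioactivity counted by scintillation after ice-cold washes.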

[1] = test system: L-687,414-induced hyperlocomotion; test: L-687,414-induced hyperlocomotion; format: in vivo, mouse; conditions: Mus musculus; Dose ip 30 mg/kg, mice, 50 mg/kg s.c. L-687,414
Procedure: The described compounds of formula I reduce L-687,414-induced hyperlocomotion. This was assessed by using a computerized Digiscan 16 Animal Activity Monitoring System (Omnitech Electronics, Columbus, Ohio) to quantify locomotor activity. Animals were kept under a 12 h light/dark cycle and experiments were performed during the light period. Each activity monitoring chamber consisted of a Plexiglas box (41×41×28 cm; W×L×H) with sawdust bedding on the floor surrounded by invisible horizontal and vertical infrared sensor beams. The test boxes were divided by a Plexiglas cross providing each mouse with 20×20 cm of moving space. Cages were connected to a Digiscan Analyzer linked to a computer that constantly collected the beam status information. Records of photocell beam interruptions for individual animals were taken every 5 min over the duration of the experimental session and the sum of the first 6 periods was used as the final parameter. At least 8 mice were used in each treatment group. Compounds were administered either p.o. 15 min before a s.c. injection of 50 mg/kg of L-687,414, or i.p. at the same time as a s.c. injection of 50 mg/kg of L-687,414. Mice were then transferred from their home cage to the recording chambers for a 15-min habituation phase allowing free exploration of the new environment. Horizontal activity was then recorded for a 30-min time period. The % inhibition of L-687,414-induced hyperlocomotion was calculated according to the equation:
((Veh+L-687,414 horizontal activity−drug+L-687,414 horizontal activity)/Veh+L-687,414 horizontal activity)×100
ID50 values, defined as doses of each compound producing 50% inhibition of L-687,414-induced hyperlocomotion, were calculated by linear regression analysis of a dose-response data using an Excel-based computer-fitting program.
As data was not presupposed to be normally distributed, groups treated with test compounds were statistically compared with the control (vehicle-treated) group using one-tailed Mann Whitney U tests. In statistics, the Mann-Whitney U test (also called the Mann-Whitney-Wilcoxon (MWW) or Wilcoxon rank-sum test) is a non-parametric statistical hypothesis test for assessing whether one of two samples of independent observations tends to have larger values than the other. It is one of the most well-known non-parametric significance tests. […] P values given in table 1 are one-tailed since only decreases in locomotion were expected and tested for (Mann, H. B., Whitney, D. R. (1947), “On a Test of Whether one of Two Random Variables is Stochastically Larger than the Other”, Annals of Mathematical Statistics, 18 (1), 50-60).

mice = test: SmartCube behavioral signature similarity analysis; format: in vivo, mouse; design: key to discrimination rate vs Clozapine (similarity analysis) / discrimination rate vs Olanzapine (similarity analysis) / discrimination rate vs Risperidone (similarity analysis): fraction; 0.5 = zero distinguishability between the two drugs; conditions: for discrimination rate vs Clozapine (similarity analysis) / discrimination rate vs Olanzapine (similarity analysis) / discrimination rate vs Risperidone (similarity analysis): 5 mg/kg i.p., SmartCube, rate of 0.70 or lower = similar
From the text: In addition to the reversal of L-687,414 induced hyperlocomotion experiment as described above, some compounds of the present invention have been tested in SmartCube®, an automated system in which the behaviors of compound-treated mice in response to multiple challenges are captured by digital video and analyzed with computer algorithms (Roberds et al., Frontiers in Neuroscience, 2011, Vol. 5, Art. 103, 1-4; Vadim Alexandrov, Dani Brunner, Taleen Hanania, Emer Leahy Eur. J. Pharmacol. 2015, 750, 82-99). In this way, the neuro-pharmacological effects of a test compound can be predicted by similarity to major classes of compounds, such as antipsychotics, anxiolytics and antidepressants.
As mentioned above, some compounds have been tested in SmartCube©, an analytical system developed by PsychoGenics Inc.
SmartCube® was used to compare the behavioral signature of a test compound to a database of behavioral signatures obtained from a large set of clinically approved reference drugs, grouped per indications. In this way, the neuro-pharmacological effects of a test compound can be predicted by similarity to major classes of compounds, such as antipsychotics, anxiolytics and antidepressants. This approach is ideally suited to screen collections of existing drugs or drug candidates with previously unknown neuropharmacology, which could expedite the development of new and unexpected treatments for psychiatric disorders.
Some compounds of the present invention were injected i.p. at different doses 15 minutes before the test. At least 8 mice were used in each treatment group. Digital videos of the subjects were processed with computer vision algorithms to extract over 2000 dependent measures including frequency and duration of many different behavioral states. The results of the classifications are presented as bar charts for each compound and dose (mg/kg), the Y-axis indicates the relative probability that the test compound will show efficacy in the specific CNS indication.
For comparison, the behavioral signatures of the atypical antipsychotics clozapine, olanzapine and risperidone are shown in FIG. 2. Compounds of the present invention show similar signatures to those of atypical antipsychotics. An independent analysis was performed on the unclassified data to determine the similarity of the example compounds to active doses of known atypical antipsychotics. For this analysis, we use discrimination rate as the measure of separability between the two drugs, i.e. one drug's “distinguishability” from another. A rate equal to 50% (or 0.5) corresponds to zero distinguishability. […] In most cases, the example compounds show a similarity to risperidone, clozapine and olanzapine with a discrimination rate of <0.70.

Structure (SMILES)	pIC50 (mouse ENT-1 transporter)	inhibition in vivo at 30 mg/kg [1] [%]	SmartCube similarity to major drug classes (mice)	discrimination rate vs Clozapine (similarity analysis) (mice)	discrimination rate vs Olanzapine (similarity analysis) (mice)	discrimination rate vs Risperidone (similarity analysis) (mice)
Cc1ncc(-c2ccc3c(c2)N(c2cnc(C)nc2)C(=O)C3(C)C)cn1 [Example 9, 3,3-Dimethyl-1,6-bis(2-methylpyrimidin-5-yl)indolin-2-one]	6.76	93.2	similarity to atypical antipsychotics	0.65	0.66	0.69
Cc1cc(N2C(=O)C(C)(C)c3ccc(-c4cnc(C)nc4)cc32)c(F)cn1 [Example 25, 1-(5-Fluoro-2-methylpyridin-4-yl)-3,3-dimethyl-6-(2-methylpyrimidin-5-yl)indolin-2-one]	–	–	similarity to atypical antipsychotics	0.61	0.62	0.74
Cc1ccc(N2C(=O)C(C)(C)c3ccc(-c4cnc(C)nc4)cc32)nn1 [Example 48, 3,3-Dimethyl-1-(6-methylpyridazin-3-yl)-6-(2-methylpyrimidin-5-yl)indolin-2-one]	7.26	–	similarity to atypical antipsychotics	0.58	0.61	0.67
Cc1cnc(N2C(=O)C(C)(C)c3ccc(-c4cnc(C)nc4)cc32)nc1 [Example 53, 3,3-Dimethyl-1-(5-methylpyrimidin-2-yl)-6-(2-methylpyrimidin-5-yl)indolin-2-one]	5.82	–	similarity to atypical antipsychotics	0.59	0.61	0.62
